This is an account of results in patent US20260167656A1, “PHOSPHORAMIDATE COMPOUNDS AND USES THEREOF” (ALLORION THERAPEUTICS INC, priority 2022, published 2026).

The test system of test [1] is non-small cell lung cancer cell line H460. The experiment in a line: H460 proliferation assay in the presence of 3 uM ASP9521 (AKR1C3 specific inhibitor). Conditions: H460 cells, CellTiter-Glo, 72 hours, in the presence of 3 uM ASP9521 added 4 hours prior to compounds; read-out: CTG H460: Avg IC50 (nM) [Assay Condition: ASP9521]. The test is classed as cell-based, human. The method, then: (§1) Specifically, exponentially growing cells were seeded at density of 3×10^3 cells per well in 96-well plate and incubated at 37° C. in 5% CO2, 95% air and 100% relative humidity for 24 hours before adding compounds. Compounds were solubilized in 100% DMSO at 10 mM. Compounds were added to the plate using Tecan D300e® digital Dispenser. After drug addition, the plates were incubated for an additional 72 hours at 37° C. in 5% CO2, 95% air and 100% relative humidity. At the end of the incubation, cell viability was quantified with CellTiter-Glo® assay.
To further confirm that compounds were activated by human AKR1C3, H460 proliferation assay were also performed in the presence of 3 uM […], an AKR1C3 specific inhibitor. ASP9521 were added to the plates 4 hours prior to the addition of compounds.
On the technique in general: Cellular ATP, detected with luciferase, serves as a proxy for viable cell number.

The test system is the same in test [2]. The experiment in a line: In vitro human cancer cell line cytotoxicity (proliferation) assay in H460, CellTiter-Glo, 72 hours. Format: cell-based. Conditions: H460 cells, DMSO condition (no AKR1C3 inhibitor), read-out: CTG H460: Avg IC50 (nM) [Assay Condition: DMSO]. The method, then: Biological Example 1. In Vitro Human Cancer Cell Line Cytotoxicity Assay
IC50 values in nanomolar reported here were derived from in vitro proliferation assay data in non-small cell lung cancer cell line H460.
as §1

The IC50 is the concentration that gives 50% inhibition. Take `Cn1c(=O)oc2cc(Oc3cc4c(cc3[N+](=O)[O-])CCC4OP(=O)(N3CC3)N3CC3)ccc21` (centres unmarked) [Example 174]: the concentration for half-maximal inhibition (IC50) in test [1] was 244 nM; in test [2] (Homo sapiens, NCI-H460, 72 h), below 10 nM.

Consider `Cn1nnc(-c2cccc(Oc3c([N+](=O)[O-])ccc4c3CC[C@@H]4OP(=O)(N3CC3)N3CC3)c2)n1` [Example 354], for which the IC50 in test [1] was 768 nM; in test [2] (Homo sapiens, NCI-H460, 72 h), below 10 nM.

As for `O=[N+]([O-])c1ccc2c(c1Oc1ccc(-c3ccncc3)cc1)CCC2OP(=O)(N1CC1)N1CC1` (centres unmarked) [Example 62], the IC50 is 6100 nM in test [1] and at least 100 nM in test [2].

Take `O=C(NC1CC1)c1ccc(Oc2c([N+](=O)[O-])ccc3c2CC[C@H]3OP(=O)(N2CC2)N2CC2)cc1` [Example 263]: the results for the IC50 in test [1] and in test [2] were 943 nM and below 10 nM, respectively.

On to `CN(C)C(=O)c1cccc(Oc2cc3c(cc2[N+](=O)[O-])CCC3OP(=O)(N2CC2)N2CC2)c1` (centres unmarked) [Example 147], for which the results for the IC50 in test [1] and in test [2] were 311 nM and below 10 nM, respectively.

As for `O=[N+]([O-])c1ccc2c(c1Oc1ccc(F)c(-n3cc(F)cn3)c1)CC[C@@H]2OP(=O)(N1CC1)N1CC1` [Example 421], the half-maximal inhibitory concentration (IC50) in test [1] was 1400 nM; in test [2] (Homo sapiens, NCI-H460, 72 h), below 10 nM.

Consider `O=[N+]([O-])c1ccc2c(c1Oc1cccc(-c3ncc(F)cn3)c1)CCC2OP(=O)(N1CC1)N1CC1` (centres unmarked) [Example 87], for which the IC50 is 5890 nM in test [1] and 10 to 50 nM in test [2].

As to `O=[N+]([O-])c1ccc2c(c1Oc1cncc(C3CC3)c1)CC[C@@H]2OP(=O)(N1CC1)N1CC1` [Example 319], the IC50 was 521 nM in test [1] and below 10 nM in test [2] (Homo sapiens, NCI-H460, 72 h).

Regarding `O=C(c1cc(Oc2c([N+](=O)[O-])ccc3c2CC[C@@H]3OP(=O)(N2CC2)N2CC2)ccc1F)N1CCC1` [Example 257], the results for the IC50 in test [1] and in test [2] were 1810 nM and below 10 nM, respectively.

With `O=C(NC1CCC1)c1ccc(Oc2cc3c(cc2[N+](=O)[O-])CC[C@H]3OP(=O)(N2CC2)N2CC2)cc1` [Example 526], the 50% inhibitory concentration (IC50) in test [1] is 661 nM; in test [2], below 10 nM.

Consider `O=[N+]([O-])c1ccc2c(c1Oc1cccc(C(F)(F)F)c1)CCC2OP(=O)(N1CC1)N1CC1` (centres unmarked) [Example 308], for which the results for the half-inhibitory concentration (IC50) in test [1] and in test [2] were 357 nM and below 10 nM, respectively.

Regarding `CS(=O)(=O)c1ccc(Oc2c([N+](=O)[O-])ccc3c2CCC3OP(=O)(N2CC2)N2CC2)cc1` (centres unmarked) [Example 504], the values for the half-inhibitory concentration (IC50) in test [1] and in test [2] were 288 nM and below 10 nM, respectively.

In the case of `O=[N+]([O-])c1cc2c(cc1Oc1ccc(-c3ccccn3)cc1)C(OP(=O)(N1CC1)N1CC1)CC2` (single isomer, unassigned) [Example 189], the results for the IC50 in test [1] and in test [2] were 1190 nM and below 10 nM, respectively.

In the case of `CN(C)C(=O)c1cccc(Oc2c([N+](=O)[O-])ccc3c2CCC3OP(=O)(N2CC2)N2CC2)c1` (single isomer, unassigned) [Example 33], the IC50 in test [1] was 476 nM; in test [2], below 10 nM.

Consider `O=[N+]([O-])c1ccc2c(c1Oc1ccc(-c3ccccc3)cc1)OCCC2OP(=O)(N1CC1)N1CC1` (centres unmarked) [Example 134], for which the IC50 was 1510 nM in test [1] and 10 to 50 nM in test [2] (Homo sapiens, NCI-H460, 72 h).

On to `CN(C)C(=O)c1ccc(Oc2cc3c(cc2[N+](=O)[O-])CCC3OP(=O)(N2CC2)N2CC2)cc1` (single isomer, unassigned) [Example 140], for which the IC50 was 436 nM in test [1] and below 10 nM in test [2] (Homo sapiens, NCI-H460, 72 h).

Take `CS(=O)(=O)c1cc(Oc2c([N+](=O)[O-])ccc3c2CCC3OP(=O)(N2CC2)N2CC2)ccc1F` (centres unmarked) [Example 508]: the results for the IC50 in test [1] and in test [2] were 519 nM and below 10 nM, respectively.

As to `CC(OP(=O)(N1C[C@H]1C)N1C[C@H]1C)c1ccc([N+](=O)[O-])c(Oc2ccc(-c3ccc(F)cn3)c(F)c2)c1` (some centres unmarked) [Example 224], the IC50 in test [1] is 6460 nM; in test [2] it was below 10 nM.

On to `O=[N+]([O-])c1ccc2c(c1Oc1cccc(OC3CCC3)c1)CCC2OP(=O)(N1CC1)N1CC1` (racemic) [Example 459], for which the IC50 in test [1] is 845 nM; in test [2] it was below 10 nM.

Regarding `O=C(c1cccc(Oc2c([N+](=O)[O-])ccc3c2CCC3OP(=O)(N2CC2)N2CC2)c1)N1CC(F)(F)C1` (centres unmarked) [Example 67], the figures for the IC50 in test [1] and in test [2] were 541 nM and below 10 nM, respectively.

Consider `CSc1ccc(Oc2c([N+](=O)[O-])ccc3c2CCC3OP(=O)(N2CC2)N2CC2)cc1` (racemic) [Example 461], for which the IC50 in test [1] is 547 nM; in test [2], below 10 nM.

As for `Cc1cnn(-c2ccc(Oc3c([N+](=O)[O-])ccc4c3CCC4OP(=O)(N3CC3)N3CC3)cc2)c1` (centres unmarked) [Example 425], the IC50 in test [1] is 5270 nM; in test [2], below 10 nM.

Turning to `CN(C)C(=O)c1cccc(Oc2cc3cc(COP(=O)(N4CC4)N4CC4)oc3cc2[N+](=O)[O-])c1` [Example 229, (5-(3-(dimethylcarbamoyl)phenoxy)-6-nitrobenzofuran-2-yl)methyl di(aziridin-1-yl)phosphinate], the half-maximal inhibitory concentration (IC50) in test [1] is 515 nM; in test [2] (Homo sapiens, NCI-H460, 72 h), below 10 nM.

Regarding `Cn1cnc(-c2cccc(Oc3c([N+](=O)[O-])ccc4c3CCC4OP(=O)(N3CC3)N3CC3)c2)cc1=O` (centres unmarked) [Example 118], the half-inhibitory concentration (IC50) in test [1] was 4510 nM; in test [2], 10 to 50 nM.

With `O=C1c2cc(Oc3c([N+](=O)[O-])ccc4c3CC[C@@H]4OP(=O)(N3CC3)N3CC3)ccc2CN1C1CC1` (single isomer, unassigned) [Example 39], the half-inhibitory concentration (IC50) in test [1] is 561 nM; in test [2] (Homo sapiens, NCI-H460, 72 h), below 10 nM.

For the compound `O=C(NC1CC1)c1ccc(Oc2c([N+](=O)[O-])ccc3c2CCC3OP(=O)(N2CC2)N2CC2)cc1` (centres unmarked) [Example 72], the half-maximal inhibitory concentration (IC50) was 1390 nM in test [1] and 50 to 100 nM in test [2].

As for `CN(C)C(=O)c1cccc(Oc2c([N+](=O)[O-])ccc3c2OCCC3OP(=O)(N2CC2)N2CC2)c1` (centres unmarked) [Example 128], the IC50 is 491 nM in test [1] and below 10 nM in test [2] (Homo sapiens, NCI-H460, 72 h).

As to `CC(C)Oc1cccc(Oc2c([N+](=O)[O-])ccc3c2CC[C@@H]3OP(=O)(N2CC2)N2CC2)c1` [Example 452], the figures for the IC50 in test [1] and in test [2] were 2240 nM and below 10 nM, respectively.

`C[C@H](OP(=O)(N1CC1)N1CC1)c1cc2cc(Oc3ccc4c(c3)OC(F)(F)O4)c([N+](=O)[O-])cc2o1` [Example 551]: the IC50 in test [1] is 2600 nM; in test [2] (Homo sapiens, NCI-H460, 72 h), below 10 nM.

`O=[N+]([O-])c1ccc2c(c1Oc1ccc(F)c(OCC3CC3)c1)CC[C@@H]2OP(=O)(N1CC1)N1CC1` [Example 489]: the IC50 is 1660 nM in test [1] and below 10 nM in test [2] (Homo sapiens, NCI-H460, 72 h).

On to `O=[N+]([O-])c1cc2oc(COP(=O)(N3CC3)N3CC3)cc2cc1Oc1cccc(-c2ccccc2)c1` [Example 534], for which the IC50 in test [1] was 1200 nM; in test [2] (Homo sapiens, NCI-H460, 72 h), below 10 nM.

`CN1Cc2ccc(Oc3cc4c(cc3[N+](=O)[O-])OCCC4OP(=O)(N3CC3)N3CC3)cc2C1=O` (single isomer, unassigned) [Example 202]: the IC50 in test [1] was 1390 nM; in test [2], below 10 nM.

In the case of `CN1Cc2ccc(Oc3cc4cc(COP(=O)(N5CC5)N5CC5)oc4cc3[N+](=O)[O-])cc2C1=O` [Example 569], the values for the IC50 in test [1] and in test [2] were 937 nM and below 10 nM, respectively.

As to `O=[N+]([O-])c1ccc2c(c1Oc1ccc(F)c(-n3cc(F)cn3)c1)CC[C@H]2OP(=O)(N1CC1)N1CC1` [Example 420], the IC50 in test [1] is 675 nM; in test [2] (Homo sapiens, NCI-H460, 72 h) it was below 10 nM.

Regarding `Cn1cc(Oc2cccc(Oc3c([N+](=O)[O-])ccc4c3CC[C@H]4OP(=O)(N3CC3)N3CC3)c2)cn1` [Example 455], the figures for the half-inhibitory concentration (IC50) in test [1] and in test [2] were 1660 nM and below 10 nM, respectively.

On to `O=[N+]([O-])c1ccc2c(c1Oc1ccc(-c3ncccn3)cc1)CCC2OP(=O)(N1CC1)N1CC1` (racemic) [Example 282], for which the results for the half-inhibitory concentration (IC50) in test [1] and in test [2] were 1240 nM and below 10 nM, respectively.

`Cn1nc(-c2cccc(Oc3c([N+](=O)[O-])ccc4c3CC[C@@H]4OP(=O)(N3CC3)N3CC3)c2)cc1F` [Example 375]: the IC50 in test [1] is 2520 nM; in test [2] (Homo sapiens, NCI-H460, 72 h), below 10 nM.

`O=[N+]([O-])c1ccc2c(c1Oc1ccc(F)c(-c3ccc(F)cn3)c1)CCC2OP(=O)(N1CC1)N1CC1` (centres unmarked) [Example 328]: the half-maximal inhibitory concentration (IC50) is 4230 nM in test [1] and below 10 nM in test [2].

Regarding `CC(C)Oc1cccc(Oc2c([N+](=O)[O-])ccc3c2CC[C@H]3OP(=O)(N2CC2)N2CC2)c1` [Example 453], the figures for the IC50 in test [1] and in test [2] were 819 nM and below 10 nM, respectively.

With `CN(C(=O)c1cccc(Oc2c([N+](=O)[O-])ccc3c2CCC3OP(=O)(N2CC2)N2CC2)c1)c1ccccn1` (centres unmarked) [Example 247], the concentration for half-maximal inhibition (IC50) in test [1] is 764 nM; in test [2], below 10 nM.

As to `O=[N+]([O-])c1ccc2c(c1Oc1ccc(O)c(-c3ccc(F)cn3)c1)CCC2OP(=O)(N1CC1)N1CC1` (centres unmarked) [Example 334], the results for the half-maximal inhibitory concentration (IC50) in test [1] and in test [2] were 824 nM and below 10 nM, respectively.

Regarding `O=[N+]([O-])c1cc2c(cc1Oc1ccc(-c3ccccn3)cc1)C(OP(=O)(N1CC1)N1CC1)CC2` (centres unmarked) [Example 517], the 50% inhibitory concentration (IC50) in test [1] was 2050 nM; in test [2], below 10 nM.

Turning to `Cn1ccc2cc(F)c(Oc3c([N+](=O)[O-])ccc4c3CCC4OP(=O)(N3CC3)N3CC3)cc21` (centres unmarked) [Example 402], the figures for the IC50 in test [1] and in test [2] were 712 nM and below 10 nM, respectively.
